{"source": "paper PMC7001580", "about": "(Nature chemical biology, 2016)", "molecules": {"B1": {"name": "Archaeoglobus fulgidus DUF89 subfamily I protein AF1104 (enzyme, A. fulgidus)", "chain": "MKISPLCPSCLLGRVYYEAKLVTDDEDLISQCVDESLKILAENYSSRPINAHLATRIHRRVYEILGVEDPYAEVKARANEVARQVLPLAKEIVEGSDDPFKTAVIVSIVGNNFDYGVQGHKVVEEEFRDFLKRKVQEGLKINDTERIKELSSGKVVYLTDNAGEIFFDTLLMKEIKRRCEKLTAVVRGRPIISDATIEDARLARVDKIADELLTNGKGAIGIIMDELPDETRKALEEADLIVAKGMANYECLSDGSLKPIAFLLTAKCEPVARDIGVNVGDMVAKVVE"}, "B2": {"name": "Pyrococcus horikoshii DUF89 subfamily I protein PH1575 (enzyme, P. horikoshii)", "chain": "MKVQYECLTCMANQCQRIVEMATQDMDIRRRAMILAAKLLAKEYNENAIPAIAGSLIFLELYKFLGNDDPFIEYKLKSEEMARKVADIIKRKLKLDFELAVKLAIIGNVIDFSVGFSPEDLEEEVEKMLKDKLYIDDSKELFEEVKRAENILYITDNVGEHYFDAILIEKIREISNAEVYIAGKEGPIINDATVEDLKRAGLEKLGKVISTGTRIVGVPLKLVSREFMEAFNKADVIIAKGQGNFETLSEINDSRIFFLLKAKCPAVARELKVPKGALVCMRNKFKL"}}, "key": {"At2g17340 [1]": {"target": "T1, At2g17340 (Arabidopsis thaliana, UniProt Q949P3)", "T1 sequence (Q949P3 1-367 limits assumed)": "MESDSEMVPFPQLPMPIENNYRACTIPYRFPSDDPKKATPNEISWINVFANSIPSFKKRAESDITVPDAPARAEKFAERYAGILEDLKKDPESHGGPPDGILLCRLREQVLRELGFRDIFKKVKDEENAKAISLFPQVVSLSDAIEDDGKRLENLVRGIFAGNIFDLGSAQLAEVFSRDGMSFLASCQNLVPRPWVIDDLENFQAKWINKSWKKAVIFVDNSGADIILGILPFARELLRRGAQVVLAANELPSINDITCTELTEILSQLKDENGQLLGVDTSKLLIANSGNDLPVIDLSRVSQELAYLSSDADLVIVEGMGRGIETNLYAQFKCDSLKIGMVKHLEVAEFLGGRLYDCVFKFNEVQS", "test": "phosphate release, Malachite Green, Hill fit", "type": "biochemical", "settings": "0.2 mM Ni2+, 30 °C; sigmoidal kinetics"}, "PH1575": {"target": "T2, PH1575 (Pyrococcus horikoshii, UniProt O59272)", "T2 sequence (O59272 1-287)": "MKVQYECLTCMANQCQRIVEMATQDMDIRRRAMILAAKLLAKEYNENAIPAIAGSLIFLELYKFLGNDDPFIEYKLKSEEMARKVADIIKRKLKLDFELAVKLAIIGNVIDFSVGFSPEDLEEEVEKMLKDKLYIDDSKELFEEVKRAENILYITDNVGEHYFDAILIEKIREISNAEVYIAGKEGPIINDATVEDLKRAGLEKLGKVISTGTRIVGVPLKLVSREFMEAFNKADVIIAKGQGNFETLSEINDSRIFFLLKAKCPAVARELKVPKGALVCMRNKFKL", "test": "phosphate release, Malachite Green, Michaelis-Menten fit", "type": "biochemical", "settings": "Ni2+ as preferred metal"}, "YMR027W [2]": {"target": "T3, YMR027W (Saccharomyces cerevisiae, UniProt Q04371)", "T3 sequence (Q04371 1-470)": "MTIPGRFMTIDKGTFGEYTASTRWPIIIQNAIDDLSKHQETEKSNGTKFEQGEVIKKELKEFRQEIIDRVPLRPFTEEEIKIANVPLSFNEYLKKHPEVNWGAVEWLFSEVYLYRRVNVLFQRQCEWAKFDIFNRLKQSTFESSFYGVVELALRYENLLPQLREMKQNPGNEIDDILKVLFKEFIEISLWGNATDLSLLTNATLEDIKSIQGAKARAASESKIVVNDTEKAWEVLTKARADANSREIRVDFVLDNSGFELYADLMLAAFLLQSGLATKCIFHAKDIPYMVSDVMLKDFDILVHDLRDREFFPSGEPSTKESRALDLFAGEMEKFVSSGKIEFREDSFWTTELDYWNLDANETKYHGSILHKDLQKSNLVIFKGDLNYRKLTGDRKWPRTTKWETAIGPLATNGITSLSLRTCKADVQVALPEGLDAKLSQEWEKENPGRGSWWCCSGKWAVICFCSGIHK", "test": "crystal structure, soaking with […] fructose 6-phosphate, […] Å", "type": "binding", "settings": "Mg2+ bound, pH 5.5; active site; protein pretreated with chymotrypsin"}, "At2g17340 [3]": {"target": "T4, At2g17340 (Arabidopsis thaliana, UniProt Q949P3, N221A)", "T4 sequence (Q949P3 1-367 N221A limits assumed)": "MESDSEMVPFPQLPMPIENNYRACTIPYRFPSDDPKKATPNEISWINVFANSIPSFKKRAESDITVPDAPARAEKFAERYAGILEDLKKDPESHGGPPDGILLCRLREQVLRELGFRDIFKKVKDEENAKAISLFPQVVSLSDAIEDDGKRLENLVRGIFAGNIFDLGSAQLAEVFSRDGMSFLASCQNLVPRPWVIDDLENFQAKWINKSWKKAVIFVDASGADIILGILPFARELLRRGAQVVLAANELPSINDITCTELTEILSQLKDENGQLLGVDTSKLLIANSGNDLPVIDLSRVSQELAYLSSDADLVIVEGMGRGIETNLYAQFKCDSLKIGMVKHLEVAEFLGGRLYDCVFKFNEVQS", "test": "phosphatase activity compared with wild type", "type": "biochemical", "settings": "alanine mutant of signature residue"}, "YMR027W [4]": {"target": "T5, YMR027W (Saccharomyces cerevisiae, UniProt Q04371, D254A)", "T5 sequence (Q04371 1-470 D254A)": "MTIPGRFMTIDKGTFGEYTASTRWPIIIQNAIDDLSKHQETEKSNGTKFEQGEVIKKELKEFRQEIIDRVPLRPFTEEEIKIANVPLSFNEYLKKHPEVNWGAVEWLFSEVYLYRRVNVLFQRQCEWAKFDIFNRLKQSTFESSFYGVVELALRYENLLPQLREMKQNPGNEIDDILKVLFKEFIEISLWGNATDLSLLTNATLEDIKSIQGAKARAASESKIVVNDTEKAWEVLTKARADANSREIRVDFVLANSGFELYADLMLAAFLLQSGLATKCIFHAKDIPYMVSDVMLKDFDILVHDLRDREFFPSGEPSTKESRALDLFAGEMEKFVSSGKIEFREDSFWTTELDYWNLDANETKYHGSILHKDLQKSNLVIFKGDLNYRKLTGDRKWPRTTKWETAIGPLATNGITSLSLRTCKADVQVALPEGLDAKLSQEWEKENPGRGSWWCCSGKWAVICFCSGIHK", "test": "phosphatase activity compared with wild type", "type": "biochemical", "settings": "alanine mutant of signature residue"}, "YMR027W [5]": {"target": "T6, YMR027W (Saccharomyces cerevisiae, UniProt Q04371, N255A)", "T6 sequence (Q04371 1-470 N255A)": "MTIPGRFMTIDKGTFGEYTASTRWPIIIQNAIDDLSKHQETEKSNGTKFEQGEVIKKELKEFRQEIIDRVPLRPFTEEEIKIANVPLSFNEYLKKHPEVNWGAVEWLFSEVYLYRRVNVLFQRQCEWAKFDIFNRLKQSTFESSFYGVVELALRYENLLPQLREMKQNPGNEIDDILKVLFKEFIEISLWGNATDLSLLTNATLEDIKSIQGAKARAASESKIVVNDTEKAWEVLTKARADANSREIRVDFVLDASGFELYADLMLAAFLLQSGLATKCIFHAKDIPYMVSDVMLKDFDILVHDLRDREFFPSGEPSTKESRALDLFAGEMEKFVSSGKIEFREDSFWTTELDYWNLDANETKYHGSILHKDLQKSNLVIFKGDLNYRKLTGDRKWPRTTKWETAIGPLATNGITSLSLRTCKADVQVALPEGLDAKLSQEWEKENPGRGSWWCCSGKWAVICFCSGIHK", "test": "phosphatase activity compared with wild type", "type": "biochemical", "settings": "alanine mutant of signature residue"}, "At2g17340 [6]": {"target": "T7, At2g17340 (Arabidopsis thaliana, UniProt Q949P3, D220A)", "T7 sequence (Q949P3 1-367 D220A limits assumed)": "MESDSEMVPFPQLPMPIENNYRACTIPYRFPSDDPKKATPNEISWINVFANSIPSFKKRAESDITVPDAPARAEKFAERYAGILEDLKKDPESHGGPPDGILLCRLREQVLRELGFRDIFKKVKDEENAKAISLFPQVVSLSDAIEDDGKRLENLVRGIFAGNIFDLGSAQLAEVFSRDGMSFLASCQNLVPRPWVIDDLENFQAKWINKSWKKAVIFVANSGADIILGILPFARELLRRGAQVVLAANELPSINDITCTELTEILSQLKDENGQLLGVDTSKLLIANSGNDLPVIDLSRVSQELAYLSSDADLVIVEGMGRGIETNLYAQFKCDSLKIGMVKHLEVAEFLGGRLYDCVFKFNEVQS", "test": "phosphatase activity compared with wild type", "type": "biochemical", "settings": "alanine mutant of signature residue"}, "SEC": {"target": "the molecule itself", "test": "SEC"}}}
{"molecule": "O=P(O)(O)OC[C@H]1OC(O)C[C@@H]1O", "note": "(some centres unmarked) [2-deoxyribose 5-phosphate]", "values": [{"measurement": "S0.5", "setting": "At2g17340 [1]", "value": "At2g17340 showed sigmoidal kinetics with ribose 5-phosphate or 2-deoxyribose 5-phosphate"}]}
{"molecule": "Nc1nc2c([nH]c(=O)n2[C@H]2C[C@H](O)[C@@H](COP(=O)(O)OP(=O)(O)OP(=O)(O)O)O2)c(=O)[nH]1", "note": "[8-oxo-dGTP]", "values": [{"measurement": "kinetic constants", "setting": "PH1575", "value": "the kinetic constants for 8-oxo-dGTP were close to those for ADP"}]}
{"molecule": "Nc1ncnc2c1ncn2[C@@H]1O[C@H](COP(=O)(O)OP(=O)(O)O)[C@@H](O)[C@H]1O", "note": "[ADP]", "values": [{"measurement": "kinetic constants", "setting": "PH1575", "value": "the kinetic constants for 8-oxo-dGTP were close to those for ADP"}]}
{"molecule": "O=P(O)(O)OC[C@H]1OC(O)(CO)[C@@H](O)[C@@H]1O", "note": "(some centres unmarked) [F6P, fructose 6-phosphate]", "values": [{"measurement": "crystal structure, soaking with 10 mM fructose 6-phosphate, 1.77 Å", "setting": "YMR027W [2]", "value": "Crystal soaking using YMR027W and the substrate fructose 6-phosphate"}]}
{"molecule": "O=[N+]([O-])c1ccc(OP(=O)(O)O)cc1", "note": "[pNPP, p-nitrophenyl phosphate]", "values": [{"measurement": "catalytic activity", "setting": "At2g17340 [3]", "value": "At2g17340 (Asp220, Asn221, and Asp256) abolished catalytic activity"}, {"measurement": "catalytic activity", "setting": "YMR027W [4]", "value": "signature residues of YMR027W (Asp254, Asn255, and Asp292)"}, {"measurement": "catalytic activity", "setting": "YMR027W [5]", "value": "signature residues of YMR027W (Asp254, Asn255, and Asp292)"}, {"measurement": "catalytic activity", "setting": "At2g17340 [6]", "value": "At2g17340 (Asp220, Asn221, and Asp256) abolished catalytic activity"}]}
{"molecule": "O=P(O)(O)OC[C@H]1OC(O)[C@H](O)[C@@H]1O", "note": "(some centres unmarked) [ribose 5-phosphate]", "values": [{"measurement": "S0.5", "setting": "At2g17340 [1]", "value": "At2g17340 showed sigmoidal kinetics with ribose 5-phosphate or 2-deoxyribose 5-phosphate"}]}
{"molecule": "B1", "values": [{"measurement": "stoichiometry N", "setting": "SEC", "value": 2}]}
{"molecule": "B2", "values": [{"measurement": "stoichiometry N", "setting": "SEC", "value": 2}]}
